According to patent publication US20230250055A1, “PROCESS OF MAKING N,N-DIACETYL-L-CYSTINE DISODIUM SALT FROM CYSTINE AND ACETYL CHLORIDE IN METHANOL IN THE PRESENCE OF SODIUM HYDROXIDE” (Conopco, Inc., d/b/a UNILEVER, priority 2020, published 2023):

Tests used:
skin cells = assay: potentiating glutathione synthesis within skin cells; format: cell-based; conditions: compared with cystine
[1] = solubility of NDAC relative to cystine; format: physicochemical
[2] = organic solvents such as alcohols, ethers, esters, ketones; cited from earlier work

Row | solubility compared with cystine [1] | SMILES | performance for potentiating glutathione synthesis within skin cells (skin cells) | solubility in organic solvents [2]
1 | more soluble | CC(=O)N[C@@H](CSSC[C@H](NC(C)=O)C(=O)O)C(=O)O [NDAC, N,N′-diacetyl-L-cystine] | comparable to that of cystine | 
2 |  | N[C@@H](CSSC[C@H](N)C(=O)O)C(=O)O [cystine, L-Cystine] |  | practically insoluble
